Assay: nhibition Assay against Klebsiella pneumoniae LpxC: LpxC inhibition assays were performed using liquid chromatography with tandem mass spectrometry. Assays were performed, in duplicate, in opaque, 96-well microplates in a total assay volume of 50 μL. The incubation mixture contained: LpxC (0.2 nM Kpn), 0.8 μM UDP-3-O—[(R)-3-hydroxymyristoyl]-N-acetyl-glucosamine, 40 mM Bis-Tris/HCl buffer (pH 5.9), 5 mM sodium phosphate buffer (NaH2PO4/Na2HPO4, pH 7.0), 1 mM DTT, 0.1% (w/v) fatty-acid free BSA, 10% DMSO (v/v, with or without compound). The reactions were incubated at 22° C. for 60 minutes (with mild shaking), then terminated by the addition of 25 μL 0.25 N HCl. Samples were analyzed using a LC-MS system to measure native LpxC substrate and reaction product. IC50 analysis was done using GeneData Screener and a four parameter variable slope normalized to controls. Test compounds were prepared as 8-point dose-response curves (factor dilution 2) in triplicate, starting at 1 μM final concentration. Each assay plate included 6 wells used for the Z′ factor calculation, 3 as a positive control for the assay and 3 as a negative control. The robustness was calculated as the median Z′ factor for 5 plates. Chir-90, a well-known inhibitor of LpxC activity was used as inhibitor control standard.

C[C@@H](O)[C@H](NC(=O)c1ccc(C#Cc2ccc(CN3CCOCC3)cc2)cc1)C(=O)NO
IC50: < 1 nM

— ChEMBL document CHEMBL5728176, “Substituted pyrimidines for treating bacterial infections” (2020)
